Reference: patent US7345069B2, “Oxidative activation and episulfonium ion-mediated DNA alkylation-based anticancer” (Wisconsin Alumni Research Foundation, priority 2004, dated 2008)
Like-named read-outs stand apart in the source and are kept apart here.

What was measured:
LNCaP cells [1] = conditions: cited from earlier work; for cellular ROS level: 96 h
LNCaP cells [2] = experiment: Growth inhibition by DNA assay, LNCaP cells in androgen-depleted medium, untreated or pretreated with R1881 (with or without vitamin E succinate); format: cell-based
Procedure: To test whether TG-25 was activated under oxidative stress, LNCaP cells were grown in androgen-depleted medium in the presence of 0.01 nM and 1 nM androgen analog R1881 for 96 h. […] This concentration was also close to the range of concentration of the active androgen dihydrotestosterone found in normal human male and patients treated with androgen ablation therapy. The growth inhibitory effect of LNM and TG-25 against LNCaP cells either untreated or pretreated with R1881 as shown in FIG. 9 and FIG. 10, respectively. Under these treatment conditions, 0.01 nM R1881 stimulated growth by about 30% and 1 nM R1881 inhibited cell growth to about 40% of the control untreated cells. The data shown in FIG. 9 and FIG. 10 are normalized for the growth stimulatory or inhibitory effects of R1881 alone.
The effect of LNM and TG-25 against LNCaP cells pretreated with both R1881 and α-tocopherol succinate are shown in FIG. 11 and FIG. 12, respectively. All data for pretreated cells were normalized for the growth inhibition induced by α-tocopherol succinate plus R1881.

DU-145 cells = experiment: Growth inhibition by DNA fluorescence assay, cells grown in 5% FBS, 72 h after drug treatment; format: cell-based; conditions: DNA fluorescence 72 h after drug treatment
Procedure: The growth inhibitory effects of LNM against LNCaP and DU-145 cell lines grown in 5% FBS were determined by measuring DNA fluorescence 72 h after drug treatment. […] Growth inhibitory effects of LNM against LNCaP and DU-145 cells were expressed as percent of control untreated cells are shown in FIG. 7.

[3] = tested on: immortalized normal prostatic epithelial cells (E6); experiment: Growth inhibition by DNA assay, immortalized normal prostatic epithelial cells (E6); format: cell-based
[4] = In vitro oxidation of purified TG-25 on exposure to O2; format: physicochemical; conditions: aqueous or methanol solution
Excerpt: Three additional minor metabolites were also characterized from the ΔlnmE strain, and their structures were elucidated by the combination of MS, ^1H- and ^13C—NMR, and various 2D NMR spectroscopic methods as discussed above (compound 1, 2, 4, and 5 as shown in FIG. 6) Although these compounds were isolated in minor quantities and were apparently derived from TG-25 during the isolation, their structures were critical in helping to define the oxidative activation of TG-25 undergo rearrangement via an episulfornium ion intermediate (FIG. 6). It was clear by comparing the structure of TG-25 with those of 1 and 2 that an oxidation step was required for their conversion. Isolation of compound 4 shed light into how this oxidative rearrangement from TG-25 to 1 or 2 actually happens. Thus, as depicted in FIG. 6 TG-25 apparently was first oxidized by O2 to form the dimmer 4, activating the sulfhydryl group into a disulfide. Nucleophilic attack of the disulfide by the double bond could then be envisaged to form an episulfonium ion intermediate, in a mechanistic analogy to LNM, that subsequently could be trapped by H2O (leading the formation of 1) or methanol (leading to the formation of 2). This hypothesis was confirmed by re-producing the chemistry in vitro with purified TG-25.

C[C@]1(O)CC[C@H]2[C@@H]3CCC4=CC(=O)CCC4=C3C=C[C@@]21C [Compound R1881]
cellular ROS level (LNCaP cells [1]; 0.01 nM R1881, LNCaP cells): reduces the cellular ROS | cellular ROS level (LNCaP cells [1]; 1 nM R1881, LNCaP cells): increases cellular ROS level | growth stimulation by R1881 alone (LNCaP cells [2]; 0.01 nM R1881, 96 h, androgen-depleted medium): about 30% | cell growth with R1881 alone (LNCaP cells [2]; 1 nM R1881, 96 h, androgen-depleted medium): about 40 % of the control untreated cells

C/C1=C\[C@@H](O)C(=O)/C=C/C=C\c2csc(n2)[C@@H](C)NC(=O)C[C@@]2(CC1)[S+]([O-])SC(=O)[C@]2(C)O (stereo partly drawn) [LNM, leinamycin]
growth inhibitory effect in androgen depleted medium compared with 5% FBS (LNCaP cells [2]; LNCaP cells): more pronounced | influence of R1881 pretreatment on growth inhibition (LNCaP cells [2]; LNCaP cells pretreated with 0.01 nM or 1 nM R1881): not appreciably affected | influence of α-tocopherol succinate on growth inhibition (LNCaP cells [2]; LNM alone or in combination with R1881, LNCaP cells): no effect | sensitivity of DU-145 cells compared with LNCaP cells (DU-145 cells): slightly more sensitive to LNM | IC50 ([3]; Epithelial cell, read-out: IC50, growth inhibition): < 0.0002 µM | growth inhibitory effect compared with the prostate cancer cell lines ([3]; immortalized normal prostatic epithelial cells vs LNCaP and DU-145): stronger growth inhibitory effect

C/C1=C\CC(=O)/C=C/C=C\c2csc(n2)[C@@H](C)NC(=O)C[C@@](S)(C(C)C(=O)O)CC1 (stereo partly drawn) [TG-25]
IC50 (LNCaP cells [2]; Homo sapiens, LNCaP cells pretreated with 1 nM androgen analog R1881, read-out: IC50, growth inhibition of LNCaP prostate cancer cells): 5 to 10 µM | growth inhibitory effect after co-pretreatment with R1881 and vitamin E (α-tocopherol succinate) (LNCaP cells [2]; LNCaP cells pretreated with 1 nM R1881 plus α-tocopherol succinate, normalized for pretreatment alone): completely reverses the growth inhibitory effect | growth inhibitory effect against cells pretreated with 0.01 nM R1881 (LNCaP cells [2]; LNCaP cells, 0.01 nM R1881 for 96 h): no effect | growth inhibitory effect against R1881 pretreated cells (LNCaP cells [2]; LNCaP cells, R1881 pretreated (high oxidative stress)): markedly inhibited the growth | growth inhibitory effect against control untreated cells (LNCaP cells [2]; LNCaP cells, androgen-depleted medium, no R1881): no effect | conversion upon exposure to O2 [4]: rapidly converted to 1 or 2 | growth inhibitory effect ([3]; immortalized normal prostatic epithelial cells, up to μM concentration): little growth inhibitory effect even at μM concentration

Cc1c(C)c2c(c(C)c1OC(=O)CCC(=O)O)CCC(C)(CCCC(C)CCCC(C)CCCC(C)C)O2 (stereo not drawn) [α-tocopherol (vitamin E) succinate]
effect on the increase in ROS level by 1 nM R1881 pretreatment (LNCaP cells [1]; co-treatment of LNCaP cells): can be inhibited
